In the Deep4Chem optical property database:

Assay: solvent given as SMILES
[1] = in O=P(c1ccccc1)(c1ccccc1)c1ccccc1Oc1ccccc1P(=O)(c1ccccc1)c1ccccc1

## Cc1nnc(-c2cc(-c3nnc(C)o3)c(-n3c4ccccc4c4ccccc43)cc2-n2c3ccccc3c3ccccc32)o1
In Cc1ccccc1
  fluorescence lifetime: 6.5 ns
[1]
  fluorescence lifetime: 8.5 ns

## COc1ccc(-c2ccc3c(c2)[Si](C)(C)c2cc(-c4ccc(OC)cc4)ccc2C=C3)cc1
In ClCCl
  fluorescence lifetime: 1.4 ns

## N#C/C(=C\c1ccc([N+](=O)[O-])cc1)c1nc(-c2ccccc2)cs1
In CC#N
  fluorescence lifetime: 2.85 ns

## CN(C)c1ccc(/C=C/C=C/C=C/c2ccc(B(O)O)cc2)cc1
In C1CCCCC1
  fluorescence lifetime: 0.75 ns

## c1ccc(-c2cc3cccc[n+]3[b-]3ccc(-c4cc[b-]5c(c4)c(-c4ccccc4)cc4cccc[n+]54)cc32)cc1
In C1CCCCC1
  fluorescence lifetime: 4 ns

## COC(=O)c1cc(=O)n(C)c2cc(-c3ccc4c(c3)OCCO4)sc12
In ClCCl
  fluorescence lifetime: 2.15 ns

## C=CC12N=N[C@](C=C)(C3C4CCC(C4)C31)C1[C@@H]3CC[C@@H](C3)[C@H]12 (stereo partly specified)
In CC#N
  fluorescence lifetime: 268 ns

## N#Cc1cccc(C#N)c1-n1c2ccccc2c2cc(-c3ccc4c(c3)c3ccccc3n4-c3c(C#N)cccc3C#N)ccc21
In Cc1ccccc1
  fluorescence lifetime: 28 ns

## N#C/C(=C\c1ccc(C#N)cc1)c1nc(-c2ccccc2)cs1
In CC#N
  fluorescence lifetime: 3.4 ns

## Cc1ccc(-n2cccc2)cc1
In CC#N
  fluorescence lifetime: 5.5 ns
In CCCCCC
  fluorescence lifetime: 4 ns

## CCC1=C(C)C2=C(C)c3c(I)c(I)cn3[B-](F)(F)[N+]2=C1C
In C1CCCCC1
  fluorescence lifetime: 0.259 ns
In CC(C)=O
  fluorescence lifetime: 0.127 ns
In CCO
  fluorescence lifetime: 0.125 ns
In CCOC(C)=O
  fluorescence lifetime: 0.16 ns
In CO
  fluorescence lifetime: 0.122 ns
In OCC(F)(F)F
  fluorescence lifetime: 0.147 ns

## COc1ccc(C(=Cc2ccc(/C=C(\C#N)c3ccccc3)cc2)c2ccc(OC)cc2)cc1
In C1CCOC1
  fluorescence lifetime: 0.5 ns

## COc1ccc(-c2cc3c(s2)c(C)cc(=O)n3C)cc1
In ClCCl
  fluorescence lifetime: 0.63 ns

## CC(=O)OC[C@@H]1O[C@H](n2cnc3c2N=CN2Cc4c[n+](C)c(C)nc4N=C32)[C@@H](O)[C@H]1O
In CC#N
  fluorescence lifetime: 3.5 ns
In CCO
  fluorescence lifetime: 3.24 ns
In O
  fluorescence lifetime: 3.28 ns

## COc1ccc2cc(/C=C/C3=CC(c4ccccc4)=[O+][B-](F)(F)O3)ccc2c1
In ClCCl
  fluorescence lifetime: 2.53 ns

## c1ccc(-c2cc(-c3ccc(N4c5ccccc5C(c5ccccc5)(c5ccccc5)c5ccccc54)cn3)nc(-c3ccccc3)n2)cc1
[1]
  fluorescence lifetime: 13.3 ns

## CCCCCCCCN1c2ccc(C#Cc3ccc(OC)cc3)cc2Sc2cc(C=O)ccc21
In C1CCOC1
  fluorescence lifetime: 7.1 ns
In CC#N
  fluorescence lifetime: 6.03 ns
In CCCCCC
  fluorescence lifetime: 6.46 ns
In CO
  fluorescence lifetime: 5.08 ns
In CS(C)=O
  fluorescence lifetime: 6.6 ns
In Cc1ccccc1
  fluorescence lifetime: 7.42 ns
In ClC(Cl)Cl
  fluorescence lifetime: 5.65 ns

## CCCN1/C(=C\c2c(-c3ccc(N(C)C)cc3)c(=O)c2=O)C=Cc2ccccc21
In C1CCCCC1
  fluorescence lifetime: 1.01 ns
In Cc1ccccc1
  fluorescence lifetime: 2.46 ns
In ClCCl
  fluorescence lifetime: 0.09 ns

## COc1nc(Nc2ccc3c4cccc5cccc(c6cccc2c63)c54)nc(OC)n1
In CCOC(C)=O
  fluorescence lifetime: 3.5 ns
In CS(C)=O
  fluorescence lifetime: 4 ns

## Cc1cc(C)c(C2=C3C=CC=[N+]3[B-]3(c4ccccc4)Oc4cc(O)cc5c6ccc(C)cc6c6cc2n3c6c45)c(C)c1 (stereo unspecified)
In ClC(Cl)Cl
  fluorescence lifetime: 3 ns

## CN(C)c1ccc2nc(-c3ccccc3)sc2c1Cl
In C1CCCCC1
  fluorescence lifetime: 0.1 ns

## CN(C)c1ccc2nc(-c3ccc(C(=O)OC(C)(C)C)cc3)sc2c1
In C1CCCCC1
  fluorescence lifetime: 2.2 ns

## O=C(O)CCCCCn1c2ccc(Br)cc2c(=O)c2cc3c(cc21)c(=O)c1cc(Br)ccc1n3CCCCCC(=O)O
In CO
  fluorescence lifetime: 17.3 ns

## C[Si](C)(C)c1ccc(-c2ccc(-c3ccc(-c4ccc(-c5ccc([Si](C)(C)C)s5)s4)c4nsnc34)s2)s1
In C1CCOC1
  fluorescence lifetime: 5.8 ns

## COc1ccc(/N=N/c2c(O)c3ccccc3n(C)c2=O)c(S(=O)(=O)O)c1
In CS(C)=O
  fluorescence lifetime: 0.04 ns

## C(=C\c1c2ccccc2cc2ccccc12)/c1ccccc1
In CC1CCCCC1
  fluorescence lifetime: 3.6 ns
In CC#N
  fluorescence lifetime: 4.2 ns

## Nc1ccc2c3cccc4cccc(c5cccc1c52)c43
In C1CCCCC1
  fluorescence lifetime: 5.3 ns
In CC#N
  fluorescence lifetime: 5.5 ns
In CCOC(C)=O
  fluorescence lifetime: 5.1 ns
In CO
  fluorescence lifetime: 5 ns
In CS(C)=O
  fluorescence lifetime: 5.6 ns
In ClCCl
  fluorescence lifetime: 6.8 ns

## CCOc1ccc2c(-c3nc(-c4ccccc4)no3)cc(=O)oc2c1
In CCO
  fluorescence lifetime: 6.7 ns

## Nc1ccc(N2C(=O)c3ccc4c5ccc6c7c(ccc(c8ccc(c3c48)C2=O)c75)C(=O)NC6=O)cc1
In CN(C)C=O
  fluorescence lifetime: 2.9 ns

## COc1cc(OC)c2cc(C#N)c(=N)oc2c1
In ClCCl
  fluorescence lifetime: 2.4 ns

## N#Cc1c(-c2ccc(N(c3ccccc3)c3ccccc3)cc2)c(C#N)c(-c2ccc(N(c3ccccc3)c3ccccc3)cc2)c(C#N)c1-c1ccc(N(c2ccccc2)c2ccccc2)cc1
[1]
  fluorescence lifetime: 6.21 ns

## COc1ccc(/C=C/C2=[O+][B-](F)(F)OC(/C=C/c3ccc(OC)c4ccccc34)=C2c2ccccc2)c2ccccc12
In CC#N
  fluorescence lifetime: 0.63 ns
In CC(C)=O
  fluorescence lifetime: 1.02 ns
In CCOC(C)=O
  fluorescence lifetime: 1.28 ns
In CCOCC
  fluorescence lifetime: 1.12 ns
In ClC(Cl)(Cl)Cl
  fluorescence lifetime: 0.94 ns
In ClCCl
  fluorescence lifetime: 1.91 ns
